According to patent US5530133A, “7'-amino-naphthazarin antibiotic derivatives” (Gruppo Lepetit SpA, priority 1995, dated 1996):

Experiments:
[1] = system: Trichomonas vaginalis (clin. isol.); test: MIC by broth dilution, Trichomonas vaginalis; type: cell-based; conditions: code TVL; approx. 10^5 cells/ml; Trichomonas Culture Medium Base + 10% horse serum; 48 h, 37° C.
Description: Inocula were approximately 10^4 cfu. Incubation was for 48 hours at 37° C. in nitrogen-carbon dioxide-hydrogen (80:10:10). […] The inoculum was approximately 10^5 cells/ml. After 48 hours of incubation at 37° C. in nitrogen-carbon dioxide-hydrogen (80:10:10) the wells were viewed directly with a microscope to detect the presence of viable (motile) protozoa.

[2] = system: Gardnerella vaginalis ATCC 14018; test: MIC by agar dilution, Gardnerella vaginalis; type: cell-based; conditions: code 332; Casman medium + rabbit blood; approx. 10^4 cfu; 48 h, 37° C.
[3] = system: Gram-positive and Gram-negative bacteria and fungi; conditions: according to U.S. Pat. No. 3,914,257; fungi incl. Trichophyton mentagrophytes and Candida albicans; cited from earlier work

SMILES	MIC [1] [µg/mL]	MIC [2] [µg/mL]	in vitro antimicrobial activity [3]
CCNC1=CC(=O)c2c(O)c3c(c(O)c2C1=O)OC1(C3)CC(O)c2cc3cc(C(=O)OC)oc(=O)c3c(O)c2O1 (stereo not shown) [Example 10, 7'-ethylamino purpuromycin]	8	2	–
CNC1=CC(=O)c2c(O)c3c(c(O)c2C1=O)OC1(CCc2cc4cc(C(=O)OC)oc(=O)c4c(O)c2O1)C3 (stereo not shown) [Example 32, 7'-methylamino γ-rubromycin]	2	–	–
COC(=O)c1cc2cc3c(c(O)c2c(=O)o1)OC1(Cc2c(O)c4c(c(O)c2O1)C(=O)C(OC)=CC4=O)CC3O (stereo not shown) [purpuromycin]	–	–	active in vitro against both Gram-positive and Gram-negative bacteria and fungi
